Our source for the current after loading and inhibition rate values is patent publication US10501498B2 (BGI SHENZHEN, priority 2014, dated 2019).

In this experiment the test system is HVA calcium channel. The class given is cell-based, rat.

For the compound `COC(=O)C1=C(C)NC(C)=C(C(=O)OC)C1c1ccccc1[N+](=O)[O-]` [Nifedipine, reference compound], the current after loading is on record as −734.31 pA. Further, the inhibition rate (10 µM) was found to be 50.09%.
